“Also recorded” adds a separate entry of the source. Oligonucleotides are written 5' to 3', each unit as a sugar letter and its base; * is a phosphorothioate linkage, no mark a phosphodiester; rarer units and linkages stand in square brackets, end groups in braces. Plain capitals give the bases only. m = 2'-O-methyl; r = 2'-OH (RNA); f = 2'-fluoro
What was measured:
[1] = Particle size of RNA-poly-L-arginine complexes by Dynamic Light Scattering; details: 10 minute incubation (FIG. 9)
Procedure: Particle sizes were determined by Dynamic Light Scattering (Wyatt Technology). Samples were placed in multiple wells in a 384-well plate and each well was measured ten times for 5 seconds. Z-averages were reported.

TLR7 = target: T1, TLR7 (Homo sapiens, UniProt Q9NYK1); test: PBMC stimulation with p-L-arginine-complexed RNA ligands, IFN-α ELISA; assay type: cell-based; details: human PBMCs; for TLR7 selectivity (IFN-α versus TNF-α secretion): p-L-arginine delivery (FIG. 7); for IFN-α secretion (TLR7 activity): p-L-arginine delivery, 16 hours, ELISA (FIG. 7)
T1 construct: Peripheral blood mononuclear cells (PBMCs) were obtained from buffy coats from healthy adult donors; endogenous in cells; host or cells: primary human PBMCs from healthy donor buffy coats (TLR7 expressed by pDCs)
T1 sequence (Q9NYK1 27-1049): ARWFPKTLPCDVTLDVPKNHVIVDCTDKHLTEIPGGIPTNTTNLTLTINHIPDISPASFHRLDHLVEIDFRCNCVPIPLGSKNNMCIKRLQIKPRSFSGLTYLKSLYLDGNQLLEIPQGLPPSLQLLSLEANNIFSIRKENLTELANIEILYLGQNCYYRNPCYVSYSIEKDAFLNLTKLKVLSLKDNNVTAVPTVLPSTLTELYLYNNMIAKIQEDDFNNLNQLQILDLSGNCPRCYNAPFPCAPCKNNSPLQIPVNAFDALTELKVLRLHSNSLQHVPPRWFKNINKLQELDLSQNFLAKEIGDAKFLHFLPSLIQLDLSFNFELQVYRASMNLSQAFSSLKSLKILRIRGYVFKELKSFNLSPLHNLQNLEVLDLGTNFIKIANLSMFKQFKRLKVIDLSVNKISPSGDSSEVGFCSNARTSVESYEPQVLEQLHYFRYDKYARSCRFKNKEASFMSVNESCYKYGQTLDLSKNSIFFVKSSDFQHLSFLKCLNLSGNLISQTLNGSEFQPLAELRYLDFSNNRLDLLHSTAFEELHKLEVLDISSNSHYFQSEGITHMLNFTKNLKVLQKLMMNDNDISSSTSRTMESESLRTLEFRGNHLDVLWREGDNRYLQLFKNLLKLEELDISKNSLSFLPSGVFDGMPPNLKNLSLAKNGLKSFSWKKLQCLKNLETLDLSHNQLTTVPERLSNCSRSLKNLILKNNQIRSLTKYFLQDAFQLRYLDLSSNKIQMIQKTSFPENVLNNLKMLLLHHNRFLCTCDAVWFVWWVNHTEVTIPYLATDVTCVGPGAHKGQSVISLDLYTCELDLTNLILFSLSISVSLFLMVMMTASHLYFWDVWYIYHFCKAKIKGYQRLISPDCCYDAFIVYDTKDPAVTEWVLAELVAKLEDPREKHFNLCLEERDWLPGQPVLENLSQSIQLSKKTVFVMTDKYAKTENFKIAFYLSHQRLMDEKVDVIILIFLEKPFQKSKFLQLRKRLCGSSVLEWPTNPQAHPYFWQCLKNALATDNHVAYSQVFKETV
Procedure: (§1) Peripheral blood mononuclear cells (PBMCs) were obtained from buffy coats from healthy adult donors. Buffy coat samples were first diluted with an equal volume of phosphate-buffered saline (PBS). Next, PBMCs were isolated via density gradient centrifugation with Lymphoprep density gradient media ([…] Technologies) and SepMate-50 tubes ([…] Technologies). Samples were centrifuged at 1000 g for 15 minutes. After centrifugation, the upper layers were collected by pouring into a new tube, diluted with PBS, and centrifuged at 450×g for 5 minutes. To lyse red blood cells, cell pellets were resuspended with 10 mL Ammonium-Chloride-Potassium (ACK) Lysis Buffer and incubated for 8 minutes at room temperature. After lysis, cells were washed with PBS and passed through two 70 μm cell strainers. Viable cell counts were determined with a Vi-CELL cell counter (Beckman Coulter). […] Guanosine was added between about 20 and about 30 minutes before the addition of poly-[…])-complexed RNA. […] After mixing by pipetting up and down, the reaction was incubated for 10 minutes, pipetted up and down again, and then added to the cells. In some experiments, RNA ligands were used at a final concentration of 0.6 μg/ml. Where indicated as “+2'3' cGMP”, 2'3' cyclic GMP purchased from eMolecules was complexed together with the RNA ligands. The final concentration of 2'3' cyclic GMP was 5 μg/ml. p-L-arginine was adjusted accordingly to keep the mass ratio of nucleic acid:p-L-arginine constant. Cell culture supernatants were collected 15-18 hours after stimulation and stored at -80° C. Cytokines in cell culture supernatants were detected with the BD OptEIA human TNF ELISA Set (BD Biosciences), and either Invitrogen IFN alpha Human Matched Antibody Pair kit (Thermo Fisher Scientific) or Human IFN Alpha Multi-Subtype ELISA Kit (PBL Assay Science). To test the effects of the RNA ligands described in Example 1 on TLR7 and TLR8 activation, PBMCs were stimulated with the RNA ligands using p-L-arginine complex delivery, delivery with DOTAP, or delivery without a carrier. Activity of TLR7 and TLR8 was assessed based on measurements of IFN-α or TNF-α by enzyme-linked immunosorbent assays (ELISA). In this setting, as depicted in FIG. 6, IFN-α induced by small RNAs is derived from TLR7 expressed by pDCs, or from RIG-I expressed by monocytes. In contrast, TNF-α secretion is derived from monocytes and serves as an indication of TLR8 activation. As shown in this figure, the p-L-arginine delivery restricts most of the activation to TLRs. First, the effects of the RNA ligands on TLR7 and TLR8 activation using p-L-arginine complex delivery were tested.

TLR8 [2] = target: T2, TLR8 (Homo sapiens, UniProt Q9NR97); test: PBMC stimulation with p-L-arginine-complexed RNA ligands, TNF-α ELISA; assay type: cell-based; details: human PBMCs, p-L-arginine delivery, 16 hours, ELISA (FIG. 7)
T2 construct: Peripheral blood mononuclear cells (PBMCs) were obtained from buffy coats from healthy adult donors; endogenous in cells; host or cells: primary human PBMCs from healthy donor buffy coats (TLR8 in monocytes)
T2 sequence (Q9NR97 27-1041): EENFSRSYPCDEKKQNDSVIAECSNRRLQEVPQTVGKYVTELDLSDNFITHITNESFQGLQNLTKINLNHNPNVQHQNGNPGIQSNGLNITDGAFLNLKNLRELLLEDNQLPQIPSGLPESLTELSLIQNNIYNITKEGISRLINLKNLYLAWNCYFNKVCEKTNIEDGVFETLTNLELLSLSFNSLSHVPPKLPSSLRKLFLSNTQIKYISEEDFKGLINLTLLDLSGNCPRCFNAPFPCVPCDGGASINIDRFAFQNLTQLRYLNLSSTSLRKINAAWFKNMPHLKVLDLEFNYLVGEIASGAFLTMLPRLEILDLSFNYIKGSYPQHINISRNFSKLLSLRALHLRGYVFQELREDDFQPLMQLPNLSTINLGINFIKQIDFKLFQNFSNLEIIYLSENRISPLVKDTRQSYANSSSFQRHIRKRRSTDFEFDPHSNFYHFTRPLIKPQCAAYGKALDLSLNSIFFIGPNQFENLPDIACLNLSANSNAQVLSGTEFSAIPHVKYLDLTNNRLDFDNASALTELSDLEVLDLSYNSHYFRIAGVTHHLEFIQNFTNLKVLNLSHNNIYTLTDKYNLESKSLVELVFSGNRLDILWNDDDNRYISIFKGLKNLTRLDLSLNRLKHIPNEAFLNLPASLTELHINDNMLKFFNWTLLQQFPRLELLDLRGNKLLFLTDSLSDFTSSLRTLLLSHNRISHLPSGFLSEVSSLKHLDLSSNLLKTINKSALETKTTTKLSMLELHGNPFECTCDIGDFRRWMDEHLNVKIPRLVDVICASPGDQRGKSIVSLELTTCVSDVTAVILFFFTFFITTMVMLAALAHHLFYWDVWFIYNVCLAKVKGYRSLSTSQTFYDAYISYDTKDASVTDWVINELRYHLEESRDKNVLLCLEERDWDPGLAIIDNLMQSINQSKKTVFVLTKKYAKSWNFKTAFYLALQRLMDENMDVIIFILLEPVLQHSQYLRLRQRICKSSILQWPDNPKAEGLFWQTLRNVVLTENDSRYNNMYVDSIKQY
Procedure: as §1

TLR8 [3] = target: T2, TLR8; test: PBMC stimulation with DOTAP-complexed RNA ligands, TNF-α ELISA; assay type: cell-based; details: human PBMCs, DOTAP delivery, 0.6 μg/ml and 2 μg/ml, 16 hours (FIGS. 10A-10B)
pDC-depleted PBMCs = test: IFN-α secretion by pDC-depleted PBMCs versus PBMCs; assay type: cell-based, human; details: Lipofectamine-mediated transfection, pDC-depleted PBMCs vs PBMCs (FIG. 8)
Procedure: Peripheral blood mononuclear cells (PBMCs) were obtained from buffy coats from healthy adult donors. Buffy coat samples were first diluted with an equal volume of phosphate-buffered saline (PBS). Next, PBMCs were isolated via density gradient centrifugation with Lymphoprep density gradient media ([…] Technologies) and SepMate-50 tubes ([…] Technologies). Samples were centrifuged at 1000 g for 15 minutes. After centrifugation, the upper layers were collected by pouring into a new tube, diluted with PBS, and centrifuged at 450×g for 5 minutes. To lyse red blood cells, cell pellets were resuspended with 10 mL Ammonium-Chloride-Potassium (ACK) Lysis Buffer and incubated for 8 minutes at room temperature. After lysis, cells were washed with PBS and passed through two 70 μm cell strainers. Viable cell counts were determined with a Vi-CELL cell counter (Beckman Coulter). […]
Cell culture supernatants were collected 15-18 hours after stimulation and stored at −80° C. Cytokines in cell culture supernatants were detected with the BD OptEIA human TNF ELISA Set (BD Biosciences), and either Invitrogen IFN alpha Human Matched Antibody Pair kit (Thermo Fisher Scientific) or Human IFN Alpha Multi-Subtype ELISA Kit (PBL Assay Science). […]

Substance	Particle size (diameter) of RNA-poly-L-arginine complexes [1]	TLR7 selectivity (IFN-α versus TNF-α secretion) (TLR7)	IFN-α secretion (TLR7 activity) (TLR7)	TNF-α secretion (TLR8 activity) (TLR8 [2])	TNF-α secretion (TLR8 activity) (TLR8 [3])	IFN-α secretion after pDC depletion (pDC-depleted PBMCs)
C*C*G*A*G*C*C*G*C*U*U*U*U*C*C*C (CCGAGCCGCUUUUCCC; all phosphorothioate, sugars by position not given here) [ORN7013, reference compound]	behaved similarly	limited TLR7 selectivity; also recorded: less TLR7-selective	limited TLR7 selectivity and activity; also recorded: less TLR7-selective and active			
C*C*G*A*G*C*C*G*C*fU-U*fU-U*C*C*C (rC*rC*rG*rA*rG*rC*rC*rG*rC*fUrU*fUrU*rC*rC*rC) [ORN7015, 2′-fluoro modified version of ORN7013]	behaved similarly	moderately selective	moderately selective and active			
C*C*G*A*G*C*C*G*C*mU-U*fU-U*C*C*C (rC*rC*rG*rA*rG*rC*rC*rG*rC*mUrU*fUrU*rC*rC*rC) [ORN7016, 2′-fluoro- and 2′O-methyl-modified version of ORN7013]	behaved similarly	TLR7-selective	weakly active			
C*C*U*U*C*U*U*C*U*U*C*U*U*C*U*U*C*U*U*C (rC*rC*rU*rU*rC*rU*rU*rC*rU*rU*rC*rU*rU*rC*rU*rU*rC*rU*rU*rC) [ORN7012]	behaved similarly			TLR8-active	further increased TLR8 activation	
C-G-G-mC-U-C-G-G-C-A-G-A-A-G-C-C-G-G-G-C-C (rCrGrGmCrUrCrGrGrCrArGrArArGrCrCrGrGrGrCrC; hairpin) [ORN70230me, 2′O-methyl-C-modified ORN7023]	behaved similarly	maintained TLR7 selectivity; also recorded: TLR7-selective	further increasing the activity; also recorded: highly active			
GGGACGCUGACCCAGAAGAUCACUAGAAAUAGUAGAUCUUCUGGGUCAGCGUCCC (GGGACGCUGACCCAGAAGAUCACUAGAAAUAGUAGAUCUUCUGGGUCAGCGUCCC; RNA, phosphodiester; in vitro transcribed, further chemistry not given here) [IVT4, in vitro transcribed control, RIG-I ligand 3P-RNA]						maintained after pDC depletion

Source: patent US20240042019A1, “OPTIMIZED TLR7 LIGANDS AND USES THEREOF” (Genentech, Inc., priority 2021, published 2024)
